According to patent publication US5599813A, “Thiazolopyrimidine derivatives” (Daiichi Pharmaceutical Co., Ltd., priority 1993, dated 1997):
Structures can show the parent of a compound that is named as a salt.

Tested on: Chorioallantoic membrance (CAM)
Assay: CAM angiogenesis Inhibition Test
Type: in vivo, chicken (4 to 5 day old fertilized egg)
Conditions: CAM of fertilized chicken egg, two days after; for Inhibition activity (%): 10 μl/egg in physiological saline or DMSO, 37.6° C., control vascularization settled as 100; for Judgement: class of inhibition activity, significance by Student's t-test, 2880 min
Procedure: Test was carried out by […]-Folkman's method (Nature, 297, 307 (1982)), but partially modified as described in Exp. Path. 30, 143 (1986). Chorioallantoic membrance (CAM) of 4 to 5 day old fertilized chicken egg (Babucock) was exposed. […] Vascularization (angiogenesis) of the control group was settled as 100 and the degree to the test sample was calcurated and expressed as inhibition activity. The significance of activity was determined by Student's t-test and the case over 50 % was indicated to + and the case below 50 % to i as shown in the following table.

| SMILES | Inhibition activity (%) | Judgement |
| --- | --- | --- |
| CCCC1=C(C(=O)Nc2ccc(SCCCCCC(=O)O)cc2)SC2=NCCCN21.Cl [Example 90, N-[4-(5-Carboxypentylthio)phenyl]-3-propyl-6,7-dihydro-5H-thiazolo[3,2-a]pyrimidine-2-carboxamide hydrochloride] | 93.2 | + (over 50 %) |
| CCCCCCCCc1ccc(NC(=O)C2=C(CCC#N)N3CCCN=C3S2)cc1.Cl [Example 82, N-(4-Octylphenyl)-3-(2-cyanoethyl)-6,7-dihydro-5H-thiazolo-[3,2-a]pyrimidine-2-carboxamide hydrochloride] | 88.4 | + (over 50 %) |
| Cl.O=C(Nc1cc(Cl)cc(Cl)c1)C1=C(C2CCC2)N2CCCN=C2S1 [Example 2, N-(3,5-Dichlorophenyl)-3-cyclobutyl-6,7-dihydro-5H-thiazolo[3,2-a]pyrimidine-2-carboxamide hydrochloride] | 82.5 | + (over 50 %) |
| CCCC1=C(C(=O)Nc2cc(Cl)cc(Cl)c2)SC2=NCCCN21 [Example 13, N-(3,5-dichlorophenyl)-3-propyl-6,7-dihydro-5H-thiazolo[3,2a-]pyrimidine-2-carboxamide hydrochloride] | 76.5 | + (over 50 %) |
| O=C(O)COC1=C(C(=O)Nc2cc(Cl)cc(Cl)c2)SC2=NCCCN21 [Example 114, N-(3,5-Dichlorophenyl)-3-carboxymethyloxy-6,7-dihydro-5H-thiazolo[3,2-a]pyrimidine-2-carboxamide] | 94.3 | + (over 50 %) |
| CCCCCCCCc1ccc(NC(=O)C2=C(CCC)N3CCCN=C3S2)cc1.Cl [Example 19, N-(4-n-Octylphenyl)-3-propyl-6,7-dihydro-5H-thiazolo[3,2-a]-pyrimidine-2-carboxamide hydrochloride] | 69.3 | + (over 50 %) |
| CCCCC1=C(C(=O)Nc2cc(F)cc(F)c2)SC2=NCCCN21.Cl [Example 39, N-(3,5-Difluorophenyl)-3-butyl-6,7-dihydro-5H-thiazolo[3,2-a]pyrimidine-2-carboxamide hydrochloride] | 32.3 | – |
| CCCC1=C(C(=O)Nc2ccc(C(C)(C)C)cc2)SC2=NCCCN21.Cl [Example 16, N-(4-tert-Butylphenyl)-3-propyl-6,7-dihydro-5H-thiazolo[3,2-a]pyrimidine-2-carboxamide hydrochloride] | 57.1 | + (over 50 %) |
| CCCCCCCCc1ccc(NC(=O)C2=C(C3CCC3)N3CCCN=C3S2)cc1.Cl [Example 8, N-(4-Octylphenyl)-3-cyclobutyl-6,7-dihydro-5H-thiazolo[3,2-a]pyrimidine-2-carboxamide hydrochloride] | 82.7 | + (over 50 %) |
| Cl.O=C(Nc1cc(Cl)cc(Cl)c1)C1=C(C2CCCC2)N2CCCN=C2S1 [Example 9, N-(3,5-Dichlorophenyl)-3-cyclopentyl-6,7-dihydro-5H-thiazolo[3,2-a]pyrimidine-2-carboxamide hydrochloride] | 37.2 | – |
